# Results as given in US20220281860A1, “COMPOUNDS AND METHODS OF TREATING RNA-MEDIATED DISEASES” (Arrakis Therapeutics, Inc., priority 2016, published 2022).
# System: RNA3WJ_0.0.0_5IB_3FAM
# Test: Ligand observed NMR binding assay (WaterLOGSY, STD)
# Conditions: 10 μM RNA3WJ_0.0.0_5IB_3FAM +/− 200 compound
# Procedure: Purpose: Test direct binding of compounds for RNA three way junction (3WJ). This ligand observed NMR assay is used to test direct binding of compounds to an RNA target, for example a 38 nt synthetic RNA 3WJ and others as described below. Ligand observed assay was used for hit validation studies of single compounds. Established experiments were eventually used to perform group epitope mapping, described below.
# Sample buffer: 10 mM Cacodylate, pH 7.1; 0.68 g [MW: 137.99 g/mol]; fill up to 500 ml with Millipore H2O.
# Compound Stocks: Tool compounds provided as dry powder were prepared as 50 mM stock solution in 100% d6-DMSO. […]
# Proton 900 pulse is determined and water resonance frequency is adjusted to ensure maximal water suppression. The determined values are transferred to the NMR experiments that will be recorded for the respective sample. […]
# Python scripts are used to process all recorded spectra in the assay setup, screening and deconvolution process.
# Spectra were analyzed for direct binding signals of the compounds. […]
# ARK0000013 was also tested in the NMR binding assay. Test Sample: 10 μM RNA3WJ_0.0.0_5IB_3FAM+/−200 Ark000013. ^1H 1D Watergate & WaterLOGSY spectra recorded of Ark000013 were used as a reference (Note: aromatic signals observed between 7.4-7.9 ppm and due to symmetry of the center triptycene scaffold all 9 protons are magnetically equivalent).
smiles,measurement,value
"CN(CCCN)CCCNC(=O)c1ccc2c(c1)C1c3cc(C(=O)NCCCN(C)CCCN)ccc3C2c2ccc(C(=O)NCCCN(C)CCCN)cc21 [Ark0000013, N^2,N^7,N^15-tris(3-((3-aminopropyl)(methyl)amino)propyl)-9,10-dihydro-9,10-[1,2]benzenoanthracene-2,7,15-tricarboxamide]",STD signals,small signals that were sufficient to qualitatively confirm binding
